From patent US7078400B2, “20-HETE synthase inhibitor” (Taisho Pharmaceutical Co., Ltd., priority 1999, dated 2006)

How the values were obtained:
[1] = test system: 20-HETE synthase originated from rat kidney microsome; assay: Inhibitory effect of 20-HETE synthase originated from rat kidney microsome; type: biochemical; conditions: for Inhibition rate (1 μM): 20-HETE production without compound set to 100%
Experimental: Experimental Example [Inhibitory effect of 20-HETE synthase originated from rat kidney microsome]
Regarding the compounds listed in Table 1, their inhibitory activity to production of 20-HETE was examined.
The subject compound for this examination was added to a buffer comprising 50 mM of 3-morpholinopropane sulfonic acid (pH7.4), 5 mM of magnesium chloride and 1 mM of ethylenediaminetetraacetic acid (EDTA) disodium salt.
After that, the rat kidney microsome (microsome fraction prepared from the kidney of a spontaneous hypertension rat (male, 6 weeks of age)) as an enzyme, [5,6,8,9,11,12,14,15] tritium-arachidonic acid (supplied by Amasham) as a substrate, and NADPH (supplied by Sigma) as a coenzyme were added and reacted for 1.5 hours at 37° C.
After the reaction, formic acid was added to stop the reaction, and then acetonitrile (final concentration of 50%) was added and left for 1.5 hours at room temperature.
The activity of 20-HETE synthase was measured by using a high performance liquid chromatograph having a detector for radioactive substances (supplied by Gilson), and equipped with a C18 reversed phase column (Biocyl C18, supplied by Bio-rad).

[2] = 1 μM of subject compound, rat kidney microsome
[3] = concentration at which 20-HETE production was inhibited to 50%, rat kidney microsome
[4] = concentration at which production of 20-HETE was inhibited to 50%
[5] = 1 μM of the subject compound added, rat kidney microsome
[6] = concentration at which production of 20-HETE was inhibited to 50%, rat kidney microsome

| SMILES | melting point [°C] | Inhibition rate (1 μM) [1, 2] | further results |
| --- | --- | --- | --- |
| O/N=C/Nc1ccc(OCc2cccnc2)cc1 [Comp. 362] | 156 to 157 | 106 | IC50 [1, 3]: 2.1 nM |
| O/N=C/Nc1ccc(OCCCc2cccnc2)cc1 [Comp. 363] | 154 to 155 | 105 | IC50 [1, 3]: 0.78 nM |
| O/N=C/Nc1ccc(OCCCn2cccc2)cc1 [Comp. 412] | 130 to 130.5 | – | Inhibition rate (1 μM) ([1]; 1 μM of the subject compound): 119.4; IC50 [1, 4]: 1.5 nM |
| CCCCCCOc1ccc(N/C=N/O)cc1 [Comp. 320] | 125 to 126 | 92.5 | IC50 [1, 3]: 1.3 nM |
| CC(C)Oc1ccc(N/C=N/O)cc1 [Comp. 316] | 144 to 146 | 97.9 | IC50 [1, 3]: 24 nM |
| CN(C)CCOCCOc1ccc(N/C=N/O)cc1 [Comp. 404] | 57.5 to 59 | – | Inhibition rate (1 μM) ([1]; 1 μM of the subject compound): 114.9; IC50 [1, 4]: 116 nM |
| OCc1ccc(N/C=N/O)cc1 [Comp. 209] | 169.5 to 170 | 102.2 | IC50 [1, 3]: 152 nM |
| OCCSc1ccc(N/C=N/O)cc1 [Comp. 444] | 121 | – | Inhibition rate (1 μM) ([1]; 1 μM of the subject compound): 100.7; IC50 [1, 4]: 12.1 nM |
| O/N=C/Nc1ccc(Cl)c(Cl)c1 [Comp. 24] | 119 to 120.5 | – | Inhibition rate (1 μM) [1, 5]: 89.2; IC50 [1, 6]: 520 nM |
| O/N=C/Nc1ccc(OCc2ccccn2)cc1 [Comp. 345, N-[4-(pyridin-2-ylmethoxy)phenyl]-N′-hydroxyformamidine] | 159.5 to 161 | 107 | IC50 [1, 3]: 37.5 nM |
| O/N=C/Nc1ccc(OCCN2CCCC2)cc1 [Comp. 339] | 113.5 to 114.5 | 88 | IC50 [1, 3]: 124 nM |
| COC(=O)c1cc(N/C=N/O)cc(C(=O)OC)c1 [Comp. 129] | 183 to 183.5 | – | – |
| O/N=C/Nc1ccc(OCCSc2ccccn2)cc1 [Comp. 359] | 132.5 to 134.5 | 102 | IC50 [1, 3]: 1.4 nM |
| CC(C)c1ccc(N/C=N/O)cc1 [Comp. 30] | 143 to 143.5 | – | – |
| CC(C)OCCOc1ccc(N/C=N/O)cc1 [Comp. 354] | 113 to 114 | 106 | IC50 [1, 3]: 3 nM |
| Cc1cc(Br)ccc1N/C=N/O [Comp. 41] | 161 to 161.5 | – | Inhibition rate (1 μM) [1, 5]: 96.6; IC50 [1, 6]: 49 nM |
| CC(C)=CCOc1ccc(N/C=N/O)cc1 [Comp. 334] | 125 to 126 | 105 | IC50 [1, 3]: 3.2 nM |
| O/N=C/Nc1ccc(OCC2COCO2)cc1 (centres unmarked) [Comp. 340] | 157.5 to 158 | 97.4 | IC50 [1, 3]: 3 nM |
| CC(C)c1ccccc1N/C=N/O [Comp. 32] | 114 to 115 | – | Inhibition rate (1 μM) [1, 5]: 87.2 |
| CCOC(=O)CCCCCOc1ccc(N/C=N/O)cc1 [Comp. 424] | 102 to 103.5 | – | IC50 [1, 4]: 1.5 nM |
| O=C(c1ccccc1)c1ccc(N/C=N/O)cc1 [Comp. 239] | 182.5 to 183 | – | IC50 [1, 3]: 4080 nM |

| SMILES | melting point [°C] | Inhibition rate (1 μM) [1, 2] | further results |
| --- | --- | --- | --- |
| CCC(C)c1ccc(N/C=N/O)cc1 (centres unmarked) [Comp. 4] | 101 to 102.5 | – | – |
| CC(C)(C)c1ccc(N/C=N/O)cc1 [Comp. 2, N-(4-tert-butylphenyl)-N′-hydroxy-formamidine] | 113.5 to 114.5 | – | – |
| COc1cccc(C)c1N/C=N/O [Comp. 52] | 145 to 146 | – | – |
| CCCc1cc(Br)c(N/C=N/O)c(Br)c1 [Comp. 48] | 155 to 156 | – | – |
| O/N=C/Nc1ccc(Cc2ccccc2)cc1 [Comp. 233] | 118 to 119.5 | – | – |
| Cc1ccc(N/C=N/O)cc1 [Comp. 10] | 143.5 to 144.5 | – | – |
| NS(=O)(=O)c1ccccc1N/C=N/O [Comp. 236, N-(2-aminosulfonylphenyl)-N′-hydroxyformamidine] | 130.5 to 131.5 | – | – |
| CCCCc1ccc(C)c(N/C=N/O)c1 [Comp. 133] | 116.5 to 117.5 | – | – |
| O/N=C/Nc1ccc(N2CCOCC2)c(Cl)c1 [Comp. 302] | 177.5 to 178 | – | – |
| CCOC(=O)c1cccc(N/C=N/O)c1 [Comp. 127] | 137.5 to 138.5 | – | – |
| COC(=O)c1ccc(N/C=N/O)cc1 [Comp. 37] | 167 to 167.5 | – | – |
| O/N=C/Nc1ccc2c(c1)OCO2 [Comp. 230] | 165 to 165.5 | – | – |
| CCCCCCc1ccc(N/C=N/O)cc1 [Comp. 9] | 108 to 110 | – | – |
| CCCOc1ccc(N/C=N/O)cc1 [Comp. 317] | 132 to 133 | – | – |
| O/N=C/Nc1c(Br)cc(C2CCCCC2)cc1Br [Comp. 102] | – | – | Inhibition rate (1 μM) [1, 5]: 44.4 |
| COC(=O)c1ccc(COc2ccc(N/C=N/O)cc2)cc1 [Comp. 396] | – | 102.7 | – |
| COC(=O)CCSc1ccc(N/C=N/O)cc1 [Comp. 455] | – | – | Inhibition rate (1 μM) ([1]; 1 μM of the subject compound): 105.6 |
| COc1cc(N/C=N/O)cc(OC)c1OC [Comp. 103] | 143 to 146 | – | – |
| O/N=C/Nc1ccc(OCCCN2CCCC2)cc1 [Comp. 429] | – | – | IC50 [1, 4]: 79.1 nM |
| O/N=C/Nc1ccc(I)cc1Cl [Comp. 73] | – | – | Inhibition rate (1 μM) [1, 5]: 99.9 |
| CNS(=O)(=O)Cc1ccc(N/C=N/O)cc1 [Comp. 259] | – | 52.8 | – |

| SMILES | melting point [°C] | Inhibition rate (1 μM) [1, 2] | further results |
| --- | --- | --- | --- |
| CCC1(c2ccc(N/C=N/O)cc2)CCC(=O)NC1=O (centres unmarked) [Comp. 245] | – | 55.4 | – |
| CC(=O)N(C)c1ccc(N/C=N/O)cc1 [Comp. 301] | – | 62.1 | – |
| O=C(Nc1ccccc1)c1ccccc1N/C=N/O [Comp. 278] | – | 65.3 | – |
| Cc1ccc(N/C=N/O)c(C)c1 [Comp. 22] | – | – | Inhibition rate (1 μM) [1, 5]: 95.7 |
| CCOC(=O)CSc1ccc(N/C=N/O)cc1 [Comp. 440] | – | – | Inhibition rate (1 μM) ([1]; 1 μM of the subject compound): 102.8 |
| CCc1ccc(N/C=N/O)cc1 [Comp. 16] | 141 to 142 | – | – |
| COC(=O)c1ccc(N/C=N/O)cc1 [Comp. 123, N-(4-methoxycarbonylphenyl)-N′-hydroxyformamidine] | – | – | Inhibition rate (1 μM) [1, 5]: 92.7 |
| O/N=C/Nc1c(F)c(F)c(F)c(F)c1F [Comp. 215] | – | 36.1 | – |
| O/N=C/Nc1ccc(SCc2ccc(Cl)cc2)cc1 [Comp. 437] | – | – | Inhibition rate (1 μM) ([1]; 1 μM of the subject compound): 96.1 |
| O/N=C/Nc1ccc(OCCOc2ccccc2)cc1 [Comp. 418] | – | – | Inhibition rate (1 μM) ([1]; 1 μM of the subject compound): 120.4 |
| O=C(OC/C=C/c1ccccc1)c1ccccc1N/C=N/O [Comp. 138] | – | – | Inhibition rate (1 μM) [1, 5]: 44.0 |
| CCN(CC)CCOCCOc1ccc(N/C=N/O)cc1 [Comp. 398] | – | – | Inhibition rate (1 μM) ([1]; 1 μM of the subject compound): 95.2; IC50 [1, 4]: 2.4 nM |
| O/N=C/Nc1ccc(OCc2ccccc2CCc2ccccc2)cc1 [Comp. 386] | – | 105.2 | – |
| COc1cc(C#N)c(N/C=N/O)cc1OC [Comp. 196] | – | – | Inhibition rate (1 μM) [1, 5]: 46.9 |
| O/N=C/Nc1ccc(OCc2cccc(Oc3ccccc3)c2)cc1 [Comp. 388] | – | 96.2 | – |
| O/N=C/Nc1ccc(Br)cc1C(F)(F)F [Comp. 77] | – | – | Inhibition rate (1 μM) [1, 5]: 49.0 |
| O/N=C/Nc1ccccc1OC(F)F [Comp. 153] | – | – | Inhibition rate (1 μM) [1, 5]: 39.4 |
| CCc1cc(Br)cc(CC)c1N/C=N/O [Comp. 53] | 159 to 160 | – | – |
| O/N=C/Nc1ccc(Cl)cc1Br [Comp. 117] | – | – | Inhibition rate (1 μM) [1, 5]: 71.6 |
| CC(C)=CCCC(C)CCOc1ccc(N/C=N/O)cc1 (centres unmarked) [Comp. 380] | – | 118.9 | – |
